These results are taken from ChEMBL document CHEMBL3856194, “N'-((2-(6-bromo-2-oxo-2H-chromen-3-yl)-1H-indol-3-yl)methylene)benzohydrazide as a probable Bcl-2/Bcl-xL inhibitor with apoptotic and anti-metastatic potential” (Eur J Med Chem, 2016).

Structures are written as SMILES.

Usually IC50 stands for the point on the concentration scale where inhibition reaches its midpoint.

Data set [1] is described as follows: Cell cycle arrest in human MCF7 cells assessed as accumulation at G2/M phase at 0.5 uM after 18 to 24 hrs by propidium iodide staining based flow cytometry (reference value: 18.8 %). The format is functional.
The nature of data set [2]: Cell cycle arrest in human MCF7 cells assessed as accumulation at G0/G1 phase at 0.5 uM after 18 to 24 hrs by propidium iodide staining based flow cytometry (reference value: 67 %). In kind it is functional.
Data set [3] deals with MCF7. The data set is described as follows: Selectivity index, ratio of IC50 for African green monkey Vero cells to IC50 for human MCF7 cells. The format is functional.
In data set [4] the test system is MCF7. The data set is described as follows: Induction of apoptosis in human MCF7 cells assessed as viable cells after 24 to 48 hrs by Annexin V/7-AAD staining based flow cytometry (reference value: 72.30 %). The format is functional. Background: Flow cytometry measures light scatter and fluorescence of single cells or particles in a stream.
Data set [5] concerns MCF7. In words: Induction of apoptosis in human MCF7 cells assessed as late apoptotic cells after 24 to 48 hrs by Annexin V/7-AAD staining based flow cytometry (reference value: 16.05 %). In kind it is functional.
In data set [6] the test system is MCF7. The data set is described as follows: Induction of apoptosis in human MCF7 cells assessed as necrotic cells after 24 to 48 hrs by Annexin V/7-AAD staining based flow cytometry (reference value: 6.75 %). In kind it is functional.
Data set [7] in a line: Cytotoxicity against African green monkey Vero cells assessed as cell growth inhibition after 48 hrs by MTT assay. In kind it is toxicity, cell-based. The note with it: African green monkey (Chlorocebus sabaeus). (Tetrazolium dyes change colour on reduction, which living cells bring about.)
Data set [8] can be described thus: Cell cycle arrest in human MCF7 cells assessed as accumulation at sub-G0 phase at 0.5 uM after 18 to 24 hrs by propidium iodide staining based flow cytometry (reference value: 1.4 %). In kind it is functional.
Data set [9] can be described thus: Cell cycle arrest in human MCF7 cells assessed as accumulation at S phase at 0.5 uM after 18 to 24 hrs by propidium iodide staining based flow cytometry (reference value: 8.5 %). In kind it is functional.
The subject of data set [10] is MCF7. The data set is described as follows: Induction of apoptosis in human MCF7 cells assessed as early apoptotic cells after 24 to 48 hrs by Annexin V/7-AAD staining based flow cytometry (reference value: 4.90 %). In kind it is functional.
A short description of data set [11]: Cytotoxicity against human MCF7 cells assessed as cell growth inhibition after 48 hrs by MTT assay. The format is functional, cell-based. The note with it: MCF7, 48 h.

As to `CC[C@]1(O)C[C@H]2CN(CCc3c([nH]c4ccccc34)[C@@](C(=O)OC)(c3cc4c(cc3OC)N(C=O)[C@H]3[C@@](O)(C(=O)OC)[C@H](OC(C)=O)[C@]5(CC)C=CCN6CC[C@]43[C@@H]65)C2)C1` [VINCRISTINE], the Activity in data set [1] was determined as 54.6%; in [2], 17.9%; in the data set with MCF7 [4], 56.1%; in the data set with MCF7 [5], 17.7%; with MCF7 [6], 23.45%; in [8], 5.1%. The Activity in [9] is 7.8%; with MCF7 [10], 2.75%. The “Ratio IC50” value with MCF7 [3] was 3. The IC50 at 48 h in [7] is 0.9 µM. The IC50 in [11] was 0.3 µM.

Consider `O=C(N/N=C/c1c(-c2cc3ccccc3oc2=O)[nH]c2ccccc12)c1cccc(Br)c1`, for which, in data set [7], the IC50 at 48 h was over 200 µM. In addition, the IC50 in [11] is over 200 µM.

For `O=C(N/N=C/c1c(-c2cc3ccccc3oc2=O)[nH]c2ccccc12)c1ccc(Cl)cc1F`, in [7], the half-maximal inhibitory concentration (IC50) at 48 h is over 200 µM. Besides, the IC50 in [11] was over 200 µM.

Regarding `O=C(N/N=C/c1c(-c2cc3ccccc3oc2=O)[nH]c2ccccc12)c1ccc(Cl)cc1`, the IC50 at 48 h in data set [7] was over 200 µM. Besides, in data set [11], the IC50 is over 200 µM.

Regarding `O=C(N/N=C/c1c(-c2cc3ccccc3oc2=O)[nH]c2ccccc12)c1ccccc1F`, the IC50 at 48 h in [7] is over 200 µM. The IC50 in [11] is over 200 µM.

`O=C(N/N=C/c1c(-c2cc3ccccc3oc2=O)[nH]c2ccccc12)c1ccccc1Cl`: in data set [7], the IC50 at 48 h was over 200 µM. The IC50 in data set [11] came to 164 µM.

With `O=C(N/N=C/c1c(-c2cc3ccccc3oc2=O)[nH]c2ccccc12)c1ccccc1`, in [7], the IC50 at 48 h amounted to 121 µM. Also, the IC50 in data set [11] was over 200 µM.
